# Measurements as given in US20260258050A1, “IMMUNOMODULATOR” (HITGEN INC., priority 2023, published 2026).
# Target: T1, Human IL-17A (Homo sapiens, UniProt Q16552)
# T1 sequence (Q16552 20-155 limits assumed): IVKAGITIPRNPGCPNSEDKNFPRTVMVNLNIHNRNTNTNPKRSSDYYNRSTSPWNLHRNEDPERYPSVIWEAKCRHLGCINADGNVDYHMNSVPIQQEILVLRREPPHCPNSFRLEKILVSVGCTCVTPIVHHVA
# Experiment: IL-17A enzyme-linked immunosorbent assay (competitive ELISA, IL-17A/IL-17Ra receptor-ligand binding)
# Set-up: purchased Sino Biological Inc. 12047-H07B
# Settings: human IL-17A coated plate, human IL-17Ra, read-out: IC50, inhibitory activity of compounds on human IL-17A
# Experimental: Experimental Example 1 IL-17A Enzyme-Linked Immunosorbent Assay (ELISA)
# The inhibitory effects of human IL-17A inhibitors on receptor-ligand binding were quantitatively determined by a competitive enzyme-linked immunosorbent assay (ELISA). The ELISA was performed through the following steps.
# Human IL-17A (Sino Biological Inc., Cat #12047-H07B) was diluted with coating buffer (50 mM phosphate-buffered saline (PBS), pH 7.4) to give an IL-17A concentration of 0.2 μg/ml. 100 μL of the resulting solution was added to each well of a 96-well plate, and the plate was incubated at 37° C. for 30 min. In a blank group, 100 100 μL of the coating buffer was added instead of the IL-17A solution.
# The plate was washed four times with 10 mM phosphate-buffered saline containing 0.05% Tween-20 (PBST, pH 7.4). 200 μL of PBST was used per well for each wash. After the final wash, the plate was tapped dry on absorbent paper.
# Fresh 5% (w/v) skim milk solution was prepared before the experiment. For example, 5 g of skim milk powder (Bio-Rad, 170-6404) was completely dissolved in 100 mL of 10 mM PBST. 200 μL of the 5% (w/v) skim milk solution was added to each well, and the plate was incubated on a shaker at 25° C. for 30 min.
# (S4) Preparation of 100× to-be-Tested Compound Solutions
# During step (S3), the to-be-tested compound solutions were prepared, respectively. Each powdered compound was dissolved in dimethyl sulfoxide (DMSO) to reach a storage concentration of 10 mM. The to-be-tested compound solutions were then serially diluted four-fold with DMSO to obtain nine storage concentrations ranging from […].
# (S6) Pre-incubation of IL-17A with to-be-tested compound solutions
# 89 μL of PBST and 1 μL of each of the to-be-tested compound solutions were added to each well and mixed. The plate was pre-incubated at 25° C. for 10 min. In the blank group and the control group, 1 μL of DMSO was added instead of the to-be-tested compound solutions.
# (S7) Incubation with Human Interleukin-17 Receptor a (IL-17Ra)
# 10 μL of 16 nM human IL-17Ra (Sino Biological Inc., Cat #10895-H03H) was added, followed by incubation on a shaker at 25° C. for 30 min. The receptor solution was prepared in 10 mM PBST.
# (S9) Incubation with Horseradish Peroxidase-Conjugated Antibody
# 100 μL of mouse anti-Fc tag horseradish peroxidase (HRP)-conjugated antibody (Sino Biological Inc., Cat #10702-MM01T-H) was added to each well. The plate was incubated on a shaker at 25° C. for 30 min. The antibody was diluted with 5% (w/v) skim milk solution at 1:5,000 (v/v).
# 100 μL of 3,3′,5,5′-tetramethylbenzidine (TMB) substrate solution (BD, Cat #555214) was added to each well. Substrate A and substrate B were freshly mixed at a volume ratio of 1:1 before use. The plate was incubated in the dark at 25° C. for 5-15 min.
# (S12) Termination and Detection
# The color reaction was terminated by addition of 2.5 M hydrochloric acid (HCl). Absorbance was measured at 450 nm using a BMG PHERStar microplate reader.
# (S13) Calculation of Half-Maximal Inhibitory Concentration (IC50)
# The relative percent residual activity at each compound concentration was calculated according to Equation 1. The IC50 value of each test compound was then calculated in GraphPad 6 using the equation for log(inhibitor) versus normalized response with variable slope, as shown in Equation 2.
# relative percent residual activity (%)=[(absorbance of sample−absorbance of blank group)/(absorbance of control group−absorbance of blank group)]%. Equation 1: […]
# The compounds prepared in the above examples were tested for IL-17A inhibitory activity according to the above method.
row,SMILES,IC50 [nM]
1,Cc1[nH]nc2c1-c1cc(F)c(NC(=O)[C@@H](NC(=O)c3ccnn3CCCO)C(C3CC3)C3CC3)cc1COCC2 [compound 56],≤ 50
2,Cn1nccc1C(=O)N[C@H](C(=O)Nc1cc2c(cc1Cl)-c1c[nH]nc1CCOC2)C(C1CC1)C1CC1 [compound 31],150 to 1000
3,[2H]C([2H])([2H])n1nccc1C(=O)N[C@H](C(=O)Nc1cc2c(cc1F)-c1c(n[nH]c1C)CCOC2)C(C1CC1)C1CC1 [compound 18],50 to 150
4,Cc1[nH]nc2c1-c1cc(F)c(NC(=O)[C@@H](NC(=O)/C(F)=C\C(C)C)C(C3CC3)C3CC3)cc1CN(C(C)C(F)(F)F)C(=O)C2 (mixture of isomers) [compound 250],≤ 50
5,C=C(F)C(=O)N[C@H](C(=O)Nc1cc2c(cn1)-c1c(n[nH]c1C)CC(=O)N(C(C)C(F)(F)F)C2)C(C1CC1)C1CC1 (mixture of isomers) [compound 257],≤ 50
6,Cc1[nH]nc2c1-c1cnc(NC(=O)[C@@H](NC(=O)c3ccnn3CCCF)C(C3CC3)C3CC3)cc1CN(C(C)C(F)(F)F)C(=O)C2 (mixture of isomers) [compound 226],≤ 50
7,Cc1[nH]nc2c1-c1cnc(NC(=O)[C@@H](NC(=O)/C(F)=C\C(C)C)C(C3CC3)C3CC3)cc1CN(C1CC1)CC2 [compound 222],≤ 50
8,CC(C)=C(F)C(=O)N[C@H](C(=O)Nc1cc2c(cn1)-c1c(n[nH]c1C)CCN(C1CC1)C2)C(C1CC1)C1CC1 [compound 223],≤ 50
9,Cc1[nH]nc2c1-c1cc(F)c(NC(=O)[C@@H](NC(=O)c3ccnn3C(C)C)C(C3CC3)C3CC3)cc1CN(CC#N)CC2 [compound 179],≤ 50
10,Cc1[nH]nc2c1-c1cc(F)c(NC(=O)[C@@H](NC(=O)c3ccnn3CCCN(C)C)C(C3CC3)C3CC3)cc1COCC2 [compound 85],50 to 150
11,COCCN1Cc2cc(NC(=O)[C@@H](NC(=O)c3ccnn3[C@@H](C)CO)C(C3CC3)C3CC3)c(F)cc2-c2c(n[nH]c2C)CC1=O [compound 140],≤ 50
12,Cc1[nH]nc2c1-c1cnc(NC(=O)[C@@H](NC(=O)c3cnnn3C(C)C)C(C3CC3)C3CC3)cc1CN(C1CC1)CC2 [compound 220],≤ 50
13,Cc1[nH]nc2c1-c1cc(F)c(NC(=O)[C@@H](NC(=O)c3ccnn3CC3(C(F)(F)F)CC3)C(C3CC3)C3CC3)cc1COCC2 [compound 91],50 to 150
14,CCn1nccc1C(=O)N[C@H](C(=O)Nc1cc2c(cc1Cl)-c1c[nH]nc1CCOC2)C(C1CC1)C1CC1 [compound 30],50 to 150
15,Cc1[nH]nc2c1-c1cc(F)c(NC(=O)[C@@H](NC(=O)c3ccnn3C(C)C)C(C3CC3)C3CC3)cc1CN(C(C)(C)C(F)(F)F)C(=O)C2 [compound 207],≤ 50
16,CCc1nonc1C(=O)N[C@H](C(=O)Nc1cc2c(cc1F)-c1c(n[nH]c1C)CCOC2)C(C1CC1)C1CC1 [compound 21],≤ 50
17,Cc1[nH]nc2c1-c1cc(F)c(NC(=O)[C@@H](NC(=O)c3ccnc(CC(F)(F)F)c3)C(C3CC3)C3CC3)cc1COCC2 [compound 109],50 to 150
18,Cc1[nH]nc2c1-c1cc(F)c(NC(=O)[C@@H](NC(=O)c3ccnn3C(C)C)C(C3CC3)C3CC3)cc1CN(C1(C(F)(F)F)CC1)C(=O)C2 [compound 209],≤ 50
19,Cc1[nH]nc2c1-c1cc(F)c(NC(=O)[C@@H](NC(=O)c3cccc(-c4ccn[nH]4)c3)C(C3CC3)C3CC3)cc1COCC2 [compound 228],≤ 50
20,Cc1[nH]nc2c1-c1cnc(NC(=O)[C@@H](NC(=O)/C(F)=C\C3CC3)C(C3CC3)C3CC3)cc1CN(C(C)C(F)(F)F)C(=O)C2 (mixture of isomers) [compound 255],≤ 50
21,Cc1[nH]nc2c1-c1cc(F)c(NC(=O)[C@@H](NC(=O)c3ccnn3C3CC3)C(C3CC3)C3CC3)cc1CN(C)C(=O)C2 [compound 135],≤ 50
22,Cc1[nH]nc2c1-c1cc(F)c(NC(=O)[C@@H](NC(=O)c3ccnn3C3CCC3)C(C3CC3)C3CC3)cc1COCC2 [compound 72],≤ 50
23,"Cc1[nH]nc2c1-c1cc(F)c(NC(=O)C(NC(=O)c3ccnn3C(C)C)C3CCC(F)(F)CC3)cc1COCC2 (single isomer, unassigned) [compound 38a]",≤ 50
24,Cc1[nH]nc2c1-c1cc(F)c(NC(=O)[C@@H](NC(=O)c3ccnn3CCCN3CCN(C)CC3)C(C3CC3)C3CC3)cc1COCC2 [compound 93],50 to 150

# Second part, the compound after the results:
row,IC50 [nM],SMILES
1,≤ 50,Cc1[nH]nc2c1-c1cnc(NC(=O)[C@@H](NC(=O)c3ccnn3C(C)C)C(C3CC3)C3CC3)cc1CN(C(C)C(F)(F)F)CC2 (mixture of isomers) [compound 205]
2,≤ 50,Cc1[nH]nc2c1-c1cc(F)c(NC(=O)[C@@H](NC(=O)c3ccnn3CCCF)C(C3CC3)C3CC3)cc1CN(C(C)C(F)(F)F)C(=O)C2 (mixture of isomers) [compound 249]
3,50 to 150,Cc1[nH]nc2c1-c1cc(F)c(NC(=O)[C@@H](NC(=O)c3ccnn3[C@H]3CCOC3)C(C3CC3)C3CC3)cc1COCC2 [compound 73]
4,≤ 50,Cc1[nH]nc2c1-c1cc(F)c(NC(=O)[C@@H](NC(=O)c3conc3C(C)C)C(C3CC3)C3CC3)cc1CN(C(C)C(F)(F)F)C(=O)C2 (mixture of isomers) [compound 248]
5,≤ 50,CO[C@@H](C)Cn1nccc1C(=O)N[C@H](C(=O)Nc1cc2c(cc1F)-c1c(n[nH]c1C)CCOC2)C(C1CC1)C1CC1 [compound 78]
6,≤ 50,Cc1[nH]nc2c1-c1cnc(NC(=O)[C@@H](NC(=O)c3ccnn3C(C)C)C(C3CC3)C3CC3)cc1CN(C(C)(C)C(F)(F)F)CC2 [compound 210]
7,≤ 50,Cc1[nH]nc2c1-c1cc(F)c(NC(=O)[C@@H](NC(=O)c3ccnn3C(C)C)C(C3CC3)C3CC3)cc1CN(C(C)(C)C(F)(F)F)CC2 [compound 211]
8,≤ 50,Cc1[nH]nc2c1-c1ccc(NC(=O)[C@@H](NC(=O)c3ccnn3[C@@H](C)CO)C(C3CC3)C3CC3)cc1COCC2 [compound 51]
9,50 to 150,Cc1[nH]nc2c1-c1cc(F)c(NC(=O)[C@@H](NC(=O)c3ccnn3C(F)F)C(C3CC3)C3CC3)cc1COCC2 [compound 83]
10,≤ 50,Cc1[nH]nc2c1-c1cc(F)c(NC(=O)[C@@H](NC(=O)c3ccnn3C(C)C)C(C3CC3)C3CC3)cc1CN(C1CCC1)CC2 [compound 177]
11,≤ 50,Cc1[nH]nc2c1-c1cc(F)c(NC(=O)[C@@H](NC(=O)c3ccnn3C(C)C)C(C3CC3)C3CC3)cc1C/C=C\C2 [compound 129]
12,≤ 50,Cc1[nH]nc2c1-c1cc(F)c(NC(=O)[C@@H](NC(=O)c3ccnn3C3CSC3)C(C3CC3)C3CC3)cc1COCC2 [compound 112]
13,≤ 50,CCc1nonc1C(=O)N[C@H](C(=O)Nc1ccc2c(c1)COCCc1n[nH]c(C)c1-2)C(C1CC1)C1CC1 [compound 5]
14,50 to 150,"Cc1[nH]nc2c1-c1cc(F)c(NC(=O)[C@@H](NC(=O)c3ccnn3C(C)C[S+](C)[O-])C(C3CC3)C3CC3)cc1COCC2 (single isomer, unassigned) [compound 43b]"
15,50 to 150,CCn1nccc1C(=O)N[C@H](C(=O)Nc1ccc2c(c1)CCOCc1n[nH]c(C)c1-2)C(C1CC1)C1CC1 [compound 14]
16,50 to 150,Cc1[nH]nc2c1-c1cc(F)c(NC(=O)[C@@H](NC(=O)c3ccnn3[C@@H](C)CO)C3CCCCC3)cc1COCC2 [compound 50]
17,≤ 50,Cc1[nH]nc2c1-c1cnc(NC(=O)[C@@H](NC(=O)c3ccnn3C(C)C)C(C3CC3)C3CC3)cc1CN(C1(C(F)(F)F)CC1)CC2 [compound 212]
18,≤ 50,Cc1[nH]nc2c1-c1cnc(NC(=O)[C@@H](NC(=O)c3cnnn3C(C)C)C(C3CC3)C3CC3)cc1COCC2 [compound 243]
